The species named for assay [1] is Rattus norvegicus. Kind of assay: Bmax value(fmol/mg )was evaluated in rat brain using [125I]iodo-MLA.
For assay [2], the species on record is Rattus norvegicus. Kind of assay: Affinity constant Kd(nM) in rat brain cerebral cortex homogenates.
The species entered for assay [3] is Rattus norvegicus. Kind of assay: Bmax value(fmol/mg protein) was evaluated in rat brain using [3H]MLA.

In turn, `CCN1C[C@]2(COC(=O)c3cc([125I])ccc3N3C(=O)C[C@H](C)C3=O)CC[C@H](OC)[C@@]34[C@@H]5C[C@H]6[C@H](OC)[C@@H]5[C@](O)(C[C@@H]6OC)[C@](O)([C@@H](OC)[C@H]23)[C@@H]14` came in with a Bmax in the assay filed under Rattus norvegicus [1] of 68 fmol/mg.
The term Kd denotes a measure of binding affinity in units of concentration. Lower therefore signals higher affinity. `[3H]c1cccc(N2C(=O)C[C@H](C)C2=O)c1C(=O)OC[C@@]12CC[C@H](OC)[C@@]34[C@@H]5C[C@H]6[C@H](OC)[C@@H]5[C@](O)(C[C@@H]6OC)[C@](O)([C@@H](OC)[C@H]13)[C@H]4N(CC)C2` [METHYLLYCACONITINE[3H] MLA]: in the assay filed under Rattus norvegicus [2], binding was characterised by a dissociation constant (Kd) of 1.9 nM. Also, in the assay listed under Rattus norvegicus [3], the Bmax is 65 fmol/mg.

(Values after ChEMBL document CHEMBL1133657, “Synthesis and pharmacological characterization of [(125)I]iodomethyllycaconitine ([(125)I]iodo-MLA). A new ligand for the alpha(7) nicotinic acetylcholine receptor” (J Med Chem, 2000).)
